We go through 24 compounds from ChEMBL document CHEMBL1129635, “Evaluation of selected chemotypes in coupled cellular and molecular target-based screens identifies novel HIV-1 zinc finger inhibitors” (J Med Chem, 1996).

The test system of assay [1] is Human immunodeficiency virus 1. In words: Tested for cytoprotection against production of HIV-1 p24. The format is functional, organism-based.
The test system of assay [2] is Human immunodeficiency virus 1. In words: Effective concentration required for 50% production of p24 production. The format is functional, organism-based.
In assay [3] the test system is Human immunodeficiency virus 1. In words: Compound was tested for inhibition of HIV-1 replication in human T-cell by using XTT assay; Moderately active. The format is functional, organism-based. Background: Tetrazolium dyes change colour on reduction, which living cells bring about.
For assay [4], the system named is Human immunodeficiency virus 1. As to the kind of experiment: Tested against zinc finger of the recombinant HIV-1 p7NC protein by using Trp residue for fluorometric measurements. The class given is functional.
For assay [5], the system named is Human immunodeficiency virus 1. As to the kind of experiment: Tested against zinc finger of the recombinant HIV-1 p7NC toluenesulfonamide) residue for fluorometric measurements. The format is functional.
In assay [6] the test system is Human immunodeficiency virus 1. As to the kind of experiment: Inhibition of HIV-1 replication in human T-cell by using XTT assay. The class given is functional.
The subject of the next assay is T-cell line. As to the kind of experiment: Compound was tested for inhibition of HIV-1 replication in human T-cell by using XTT assay; Active. The class given is functional, cell-based.
The test system of assay [7] is Human immunodeficiency virus 1. As to the kind of experiment: Compound was tested for effective concentration required for 50% production of p24 production; NA = Not active. The class given is functional, organism-based.

The source made the active and inactive calls. The calls are words filed in the database; no cut-off is given here.

Regarding `Nc1cc(C(=O)O)ccc1SSc1ccc(C(=O)O)cc1N`, the IC50 in assay [1] was > 100 µM. Also, the EC50 in assay [2] is > 100 µM. Further, in assay [3], the Activity result was “Weak activity”. Moreover, the “Decrease in RFU” value in assay [4] is 79.3%. Moreover, the “increase in RFU” value in assay [5] is 10.9%. In assay [6], the TI50 is >6.4.

In assay [1], `NNC(=O)c1ccccc1SSc1ccccc1C(=O)NN` showed an IC50 of 96 µM. The EC50 in assay [2] is 21 µM. In addition, the Activity entry in assay [3] was “Weak activity”. In assay [4], the “Decrease in RFU” value stood at 80.9%. The “increase in RFU” value in assay [5] is on record as 28.5%. Besides, the TI50 in assay [6] is recorded as 5.

In the case of `NC(=O)CSSCC(N)=O`, the IC50 in assay [1] was > 100 µM. Moreover, the 50% effective concentration (EC50) in assay [2] is > 100 µM. Besides, the Activity result in assay [3] was “Weak activity”. Moreover, the “Decrease in RFU” value in assay [4] is on record as 2.1%. For the same compound, the “increase in RFU” value in assay [5] is 1.2%. In assay [6], this compound came in with a TI50 of 6.5.

On to `CNCCSS(=O)(=O)CCNC`, for which the Activity entry in assay [3] is “Weak activity”. The TI50 in assay [6] is >1.8.

With `NS(=O)(=O)c1ccc(SSc2ccc(S(N)(=O)=O)cc2[N+](=O)[O-])c([N+](=O)[O-])c1`, the Activity entry in assay [3] is “Weak activity”. Further, the TI50 in assay [6] is on record as >5.8.

Take `CC(=O)NC1CN=C(SSC2=NCC(NC(C)=O)S2)S1` (stereo not given): the IC50 in assay [1] was > 100 µM. Moreover, the EC50 in assay [2] was > 100 µM. Besides, the Activity result in assay [3] is “Weak activity”. In addition, the “Decrease in RFU” value in assay [4] was 77.8%. For the same compound, the “increase in RFU” value in assay [5] is listed as 8%. Moreover, the TI50 in assay [6] is >5.3.

On to `CC1(C)CC2=NC(SSC3=C(C#N)C(c4ccc(F)cc4)C4=C(O)CC(C)(C)CC4=N3)=C(C#N)C(c3ccc(F)cc3)C2=C(O)C1` (stereo not given), for which the IC50 in assay [1] was > 100 µM. Moreover, in assay [2], the EC50 was > 100 µM. In assay [3], the Activity entry is “Weak activity”. For the same compound, in assay [4], the “Decrease in RFU” value is reported as 78.1%. Besides, the “increase in RFU” value in assay [5] worked out at 0.3%. This compound also came in with a TI50 in assay [6] of 3.2.

For `COc1cc(SSc2cc(OC)cc([N+](=O)[O-])c2N)c(N)c([N+](=O)[O-])c1`, in assay [1], the concentration for half-maximal inhibition (IC50) was > 100 µM. The compound also showed an EC50 in assay [2] of 7.5 µM. Moreover, in assay [3], the Activity result was “Weak activity”. Also, the “Decrease in RFU” value in assay [4] came out at 80.5%. Further, the “increase in RFU” value in assay [5] is recorded as 0%. Also, the TI50 in assay [6] is given as 8.5.

For `O=C(N/N=C\c1ccc(Cl)cc1Cl)c1ccccc1SSc1ccccc1C(=O)N/N=C\c1ccc(Cl)cc1Cl`, the IC50 in assay [1] was > 100 µM. In assay [2], this compound registered an EC50 of 3.5 µM. In the assay on T-cell line, the result was Active. Further, in assay [4], the “Decrease in RFU” value was 31.3%. Also, the “increase in RFU” value in assay [5] was 1.6%. Further, in assay [6], the TI50 is reported as >15.9.

Turning to `O=S(=O)(SC1=NCCN1)c1ccccc1`, the IC50 in assay [1] is > 100 µM. Moreover, in assay [2], it took 37.2 µM to reach a half-maximal effect (EC50). Further, the Activity entry in assay [3] is “Weak activity”. Also, the “Decrease in RFU” value in assay [4] was found to be 76.1%. For the same compound, the “increase in RFU” value in assay [5] is 15.7%. The compound also came in with a TI50 in assay [6] of 4.3.

Consider `O=C(O)c1ccc(SSc2ccc(C(=O)O)cc2)cc1`, for which, in assay [1], the IC50 was > 100 µM. In assay [2], the EC50 was > 100 µM. Further, the Activity result in assay [3] is “Weak activity”. Further, in assay [4], the “Decrease in RFU” value was 62.5%. In addition, the “increase in RFU” value in assay [5] is on record as 22.3%. In addition, the TI50 in assay [6] is >1.6.

Take `Cc1cc(S(=O)(=O)C2=NC(Nc3ccccc3)NN2)c(SSc2cc(Cl)c(C)cc2S(=O)(=O)C2=NC(Nc3ccccc3)NN2)cc1Cl` (stereo not given): the IC50 in assay [1] was > 100 µM. This compound also registered an EC50 in assay [2] of 80 µM. In addition, in assay [3], the Activity result is “Weak activity”. Also, the “Decrease in RFU” value in assay [4] was 92.1%. Moreover, the “increase in RFU” value in assay [5] worked out at 1.5%. In assay [6], this compound gave a TI50 of 15.7.

Consider `CC1(C)CC2=NC(SSC3=C(C#N)C(c4ccc(Br)cc4)C4=C(O)CC(C)(C)CC4=N3)=C(C#N)C(c3ccc(Br)cc3)C2=C(O)C1` (stereo not given), for which the IC50 in assay [1] was > 100 µM. Moreover, the EC50 in assay [2] is > 100 µM. Besides, the Activity entry in assay [3] was “Weak activity”. Further, in assay [4], the “Decrease in RFU” value is listed as 24.8%. Besides, the “increase in RFU” value in assay [5] was determined as 0.3%. Also, the TI50 in assay [6] worked out at 3.4.

As to `COS(=O)CCOC(=O)c1ccccc1SSc1ccccc1C(=O)OCCS(=O)OC` (stereo not given), the EC50 entry in assay [7] was “Not Active”. Besides, the Activity entry in assay [3] is “Weak activity”. The TI50 in assay [6] is given as >2.1.

As to `COC(=S)SSC(=S)N(CC/N=C(/S)SSC(=S)OC)CC/N=C(\S)SSC(=S)OC`, in assay [1], the IC50 is > 100 µM. Besides, the EC50 in assay [2] was > 100 µM. Further, the Activity entry in assay [3] is “Weak activity”. The “Decrease in RFU” value in assay [4] is 37.7%. Also, in assay [5], the “increase in RFU” value is on record as 10.6%. In assay [6], this compound displayed a TI50 of 2.6.

Regarding `O=C(O)c1cccc(SS(=O)(=O)c2cccc(C(=O)O)c2)c1`, the IC50 in assay [1] is > 100 µM. The compound further registered a concentration for a half-maximal effect (EC50) in assay [2] of 71 µM. Besides, the Activity result in assay [3] is “Weak activity”. The “Decrease in RFU” value in assay [4] is 91.2%. The “increase in RFU” value in assay [5] turned out to be 21.1%. In assay [6], the TI50 was 13.7.

Consider `Cc1cc(C(=O)O)c(C)cc1SSc1cc(C)c(C(=O)O)cc1C`, for which the concentration for half-maximal inhibition (IC50) in assay [1] was > 100 µM. In assay [2], the EC50 turned out to be 32 µM. In assay [3], the Activity result was “Weak activity”. For the same compound, the Decrease in RFU in assay [4] was determined as 76.1%. The “increase in RFU” value in assay [5] turned out to be 15.7%. The same compound gave a TI50 in assay [6] of 3.6.

On to `O=C(O)Cc1ccc(SSc2ccc(CC(=O)O)cc2)cc1`, for which the IC50 in assay [1] was > 100 µM. Besides, the EC50 in assay [2] was > 100 µM. Besides, the Activity entry in assay [3] is “Weak activity”. Further, in assay [4], the “Decrease in RFU” value stood at 51.5%. Moreover, the “increase in RFU” value in assay [5] came out at 10.6%. The TI50 in assay [6] is >8.7.

With `Nc1cc(S(N)(=O)=O)ccc1SSc1ccc(S(N)(=O)=O)cc1N`, the IC50 in assay [1] is 100 µM. The EC50 in assay [2] was > 100 µM. Further, the Activity result in assay [3] is “Weak activity”. Besides, in assay [4], the “Decrease in RFU” value came out at 81.8%. The “increase in RFU” value in assay [5] was found to be 24.4%. Further, in assay [6], the TI50 is on record as 14.9.

In the case of `N=C(N)Nc1ccccc1SSc1ccccc1N=C(N)N`, the IC50 in assay [1] was > 100 µM. Besides, the EC50 in assay [2] came to 10 µM. Further, in the assay on T-cell line, the result was Active. Further, the “Decrease in RFU” value in assay [4] stood at 31.3%. For the same compound, the “increase in RFU” value in assay [5] was determined as 1.6%. Besides, the TI50 in assay [6] is 32.

With `O=C(O)c1ccccc1SSc1ccccc1C(=O)O`, the IC50 in assay [1] was > 100 µM. Further, a half-maximal effect in assay [2] (EC50) was put at 57.5 µM. Besides, the Activity result in assay [3] was “Weak activity”. For the same compound, in assay [4], the “Decrease in RFU” value was 6%. For the same compound, the “increase in RFU” value in assay [5] is given as 9.8%. In addition, the TI50 in assay [6] was >1.7.

Consider `Cc1cc(C)c(C(=O)O)c(SSc2cc(C)cc(C)c2C(=O)O)c1`, for which the EC50 result in assay [7] is listed as “Not Active”. The Activity entry in assay [3] is “Weak activity”. For the same compound, in assay [6], the TI50 is given as 2.7.

Compound `Nc1ccc(S(N)(=O)=O)cc1SSc1cc(S(N)(=O)=O)ccc1N` gave an IC50 in assay [1] of 97 µM. For the same compound, in assay [2], the EC50 is > 100 µM. For the same compound, in assay [3], the Activity entry is “Weak activity”. Besides, the “Decrease in RFU” value in assay [4] is on record as 52.1%. In addition, the “increase in RFU” value in assay [5] stood at 26%. Moreover, the TI50 in assay [6] is on record as >14.2.

`CC(=O)NCCSS(=O)(=O)CCCCS(=O)(=O)SCCNC(C)=O`: in assay [1], the IC50 was > 100 µM. Moreover, the EC50 in assay [2] is > 100 µM. For the same compound, in assay [3], the Activity result was “Weak activity”. Further, the “Decrease in RFU” value in assay [4] was found to be 82.5%. Also, the “increase in RFU” value in assay [5] is on record as 32.8%. The TI50 in assay [6] was >1.6.

A word on the IC50: it is the concentration needed to halve the response being measured. A low value points to greater potency. A word on the EC50: it is the concentration giving half of the maximal effect. A low value points to an effect from little substance.
